Test systems include SF-539 CNS; 786-0 renal; HOP-62 NSCLC; MDA-MB-435; MALME-3M melanoma; HS 578T breast; TK-10 renal; SK-OV-3 ovarian; HCT-116 colon; SNB-19 CNS.
What all share (assay): DTP human tumour cell line panel, 48 h

In general, GI50 refers to the concentration giving 50% growth inhibition. The term TGI denotes the concentration giving total growth inhibition. A high value points to less potent growth arrest.

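Tested at 5 concentrations; 48 h exposure; 96-well plates; endpoints linearly interpolated, else capped at highest concentration. Abbreviation: GI50, concentration required for 50% inhibition of growth. TGI is the concentration that stops growth completely.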

Take `CN(/N=N/c1nc(OCc2ccccc2)c2[nH]cnc2n1)C(=O)N(C)/N=N/c1nc(OCc2ccccc2)c2[nH]cnc2n1`: the GI50 with SF-539 CNS is 38.4 µM; with 786-0 renal, 59.7 µM; with HOP-62 NSCLC, 96.1 µM; with MDA-MB-435 it was 49.1 µM; with MALME-3M melanoma, 40.8 µM; in the test with HS 578T breast, 25.5 µM. The GI50 in the test on TK-10 renal was 27.2 µM; with SK-OV-3 ovarian it was 42.1 µM; in the test on HCT-116 colon it was 35.2 µM; in the test with SNB-19 CNS it was more than 100 µM. For the same compound, the concentration for total growth inhibition (TGI) was more than 100 µM in the test with SF-539 CNS; more than 100 µM with 786-0 renal; more than 100 µM in the test on HOP-62 NSCLC; more than 100 µM in the test on MDA-MB-435; more than 100 µM in the test with MALME-3M melanoma; 85.3 µM in the test on HS 578T breast. Also, the concentration for total growth inhibition (TGI) in the test on TK-10 renal, in the test on SK-OV-3 ovarian, with HCT-116 colon and in the test with SNB-19 CNS was more than 100 µM each time.
Take `COc1cc(-c2cn(-c3ccc(Cl)cc3)c(=O)[nH]2)cc(OC)c1OC`: the GI50 in the test with SF-539 CNS, with 786-0 renal, with HOP-62 NSCLC, with MDA-MB-435, with MALME-3M melanoma and with HS 578T breast was more than 100 µM each time. Besides, the GI50 with TK-10 renal, in the test with SK-OV-3 ovarian, in the test on HCT-116 colon and with SNB-19 CNS was more than 100 µM in each case. For the same compound, the TGI in the test with SF-539 CNS, with 786-0 renal, in the test on HOP-62 NSCLC, in the test with MDA-MB-435, with MALME-3M melanoma and in the test with HS 578T breast was more than 100 µM each time. Also, the total growth inhibition concentration (TGI) with TK-10 renal, with SK-OV-3 ovarian, in the test on HCT-116 colon and with SNB-19 CNS was more than 100 µM in each case.
Take `O=C(N/N=C/c1ccc(O)cc1O)c1ccc(Nc2ccnc(C(F)(F)F)c2)cc1`: the GI50 in the test on SF-539 CNS was 6.32 µM; in the test on 786-0 renal it was 31.2 µM; in the test on MDA-MB-435 it was more than 100 µM; in the test with MALME-3M melanoma, 0.661 µM; with HS 578T breast it was 4.4 µM; with TK-10 renal it was 2.06 µM. The GI50 in the test with SK-OV-3 ovarian is 9.67 µM; with HCT-116 colon, 39.1 µM; in the test on SNB-19 CNS, 14 µM. For the same compound, the TGI was 24.5 µM in the test on SF-539 CNS; more than 100 µM in the test with 786-0 renal; more than 100 µM in the test with MDA-MB-435; more than 45.6 µM in the test on MALME-3M melanoma; 29 µM with HS 578T breast; more than 47.1 µM with TK-10 renal. Also, the TGI with SK-OV-3 ovarian is more than 80.1 µM; in the test with HCT-116 colon, more than 100 µM; in the test on SNB-19 CNS, more than 56.5 µM.
Take `O=C(CNC(=O)c1cccc2ccccc12)Nc1ccccc1Oc1ccccc1`: the GI50 was 0.237 µM in the test on SF-539 CNS; 0.449 µM in the test on 786-0 renal; 0.354 µM with HOP-62 NSCLC; 0.0425 µM with MDA-MB-435; 0.363 µM with HS 578T breast; 0.619 µM with TK-10 renal. Besides, the GI50 in the test with SK-OV-3 ovarian is 0.398 µM; with HCT-116 colon, 0.322 µM; in the test with SNB-19 CNS it was 0.461 µM. In addition, the TGI is 0.695 µM in the test with SF-539 CNS; more than 10 µM in the test with 786-0 renal; more than 10 µM with HOP-62 NSCLC; 0.313 µM with MDA-MB-435; more than 10 µM in the test on MALME-3M melanoma; more than 10 µM with HS 578T breast. Further, the concentration for total growth inhibition (TGI) in the test on TK-10 renal was more than 10 µM; in the test on SK-OV-3 ovarian, 4.34 µM; in the test with HCT-116 colon, more than 10 µM; in the test on SNB-19 CNS, more than 10 µM.
For `c1cncc(C(Nc2cccc3cccnc23)Nc2cccc3cccnc23)c1`, the TGI in the test with SF-539 CNS, in the test on 786-0 renal, in the test with HOP-62 NSCLC, in the test with MDA-MB-435, in the test with HS 578T breast and in the test on TK-10 renal was more than 100 µM each time. In addition, the TGI in the test with SK-OV-3 ovarian, in the test with HCT-116 colon and in the test with SNB-19 CNS was more than 100 µM in each case.
For `c1cncc(CNc2ccccc2-c2nnc(Nc3ccc4c(c3)OCCO4)o2)c1`, the concentration for 50% growth inhibition (GI50) in the test with SF-539 CNS was 0.115 µM; with 786-0 renal it was 0.366 µM; with HOP-62 NSCLC, 0.181 µM; with MALME-3M melanoma, 19.2 µM; in the test with HS 578T breast, 0.232 µM; in the test with TK-10 renal it was 17 µM. Moreover, the GI50 is 0.0745 µM in the test on SK-OV-3 ovarian, 0.071 µM in the test with HCT-116 colon and 0.345 µM with SNB-19 CNS. Further, the TGI in the test on SF-539 CNS, in the test on 786-0 renal, in the test with HOP-62 NSCLC, in the test on MALME-3M melanoma, in the test on HS 578T breast and with TK-10 renal was more than 100 µM each time. Also, the TGI in the test with SK-OV-3 ovarian is 1.79 µM; with HCT-116 colon, more than 100 µM; with SNB-19 CNS, more than 100 µM.
Regarding `NC(=O)C1=C(c2ccccc2)c2ccccc2C1=O`, the concentration for total growth inhibition (TGI) in the test on 786-0 renal amounted to 30.5 µM; with HOP-62 NSCLC it was 28.3 µM; in the test with MDA-MB-435, 65.8 µM; with HS 578T breast it was 64.2 µM; with TK-10 renal, 32.4 µM; with SK-OV-3 ovarian, 33.2 µM. Also, the TGI in the test on HCT-116 colon turned out to be 34.9 µM; in the test on SNB-19 CNS it was 35.4 µM.
On to `Cc1cc(N/N=C/c2nc(-c3ccccc3)oc2C)c2cc(Cl)ccc2n1`, for which the GI50 in the test on SF-539 CNS is 1.7 µM; with 786-0 renal, 1.64 µM; in the test with HOP-62 NSCLC, 1.85 µM; in the test on MDA-MB-435, 1.78 µM; in the test with MALME-3M melanoma, 1.94 µM; in the test on TK-10 renal it was 1.79 µM. Also, the GI50 with SK-OV-3 ovarian was 1.75 µM; in the test with HCT-116 colon it was 1.82 µM; in the test on SNB-19 CNS, 2.12 µM. Moreover, the TGI came to 3.17 µM in the test on SF-539 CNS; 3.38 µM in the test with 786-0 renal; 3.66 µM in the test with HOP-62 NSCLC; 3.26 µM in the test with MDA-MB-435; 3.51 µM in the test with MALME-3M melanoma; 3.29 µM in the test with TK-10 renal. The TGI in the test with SK-OV-3 ovarian stood at 3.29 µM; with HCT-116 colon, 3.39 µM; in the test with SNB-19 CNS, 4.86 µM.
Turning to `Clc1cc(Cl)cc(N2N=C(c3cccc(Nc4ccncc4)c3)CC2c2ccc(Br)cc2)c1` (centres undefined), the GI50 in the test with SF-539 CNS was 1.7 µM; in the test with 786-0 renal it was 1.74 µM; in the test on MDA-MB-435 it was 1.61 µM; in the test on MALME-3M melanoma, 1.71 µM; with TK-10 renal, 1.86 µM; with SK-OV-3 ovarian, 2.01 µM. The GI50 with SNB-19 CNS was 1.63 µM. The TGI in the test on SF-539 CNS amounted to 3.12 µM; in the test on 786-0 renal, 3.32 µM; in the test with MDA-MB-435, 3 µM; in the test on MALME-3M melanoma it was 3.5 µM; with TK-10 renal, 3.6 µM; in the test with SK-OV-3 ovarian it was 4.11 µM. This compound also yielded a TGI with SNB-19 CNS of 3.16 µM.

The record behind these values is PubChem BioAssay (NCI).
